Consider 3 compounds from patent US4749710A, “Immunosuppressive agents” (priority 1985, dated 1988).

Where two headings read alike, the source gives them in different places.

In the data set the test system is human cytotoxic T-lymphocyte responses. Briefly: Inhibition of human CTL responses (mixed leukocyte-tumor cultures, HT-144 melanoma, ^51 Cr release). Particulars: for inhibition at 10 µM / inhibition at 1 µM / inhibition at 0.1 µM: Homo sapiens, T-lymphocyte, read-out: Inhibition of CTL activity (%); for inhibition at 10 µM / inhibition at 1 µM / inhibition at 0.1 µM / CTL activity (% specific ^51 Cr release): 0.1% ethanol. It is filed as cell-based. The method in brief:
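Effector CTLs came from 6-day mixed leukocyte–tumor cultures of donor PBMC with irradiated stimulator cells plus 1×10^-5 M hydrocortisone. Effectors were added to adhered ^51Cr-labelled target cells overnight at 37 °C; specific ^51Cr release gave percent inhibition, mean±SEM of triplicates.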

Where [1] appears, read: Test 1, donor I, 1 × 10^-5 molar, effector to target 6:1.
Setting [2] is: Test 1, donor I, 1 × 10^-6 molar, effector to target 6:1.
Where [3] appears, read: Test 2, donor II, 1 × 10^-6 molar, effector to target 6:1.
Setting [4] is: Test 2, donor II, 1 × 10^-7 molar, effector to target 6:1.
The mark [5] stands for this setting: Test 1, donor I, 1 × 10^-7 molar, effector to target 6:1.
[6] abbreviates: Test 2, donor III, 1 × 10^-6 molar, effector to target 32:1.
Where [7] appears, read: Test 2, donor III, 1 × 10^-7 molar, effector to target 32:1.
Where [8] appears, read: Test 3, donor IV, 1 × 10^-6 molar, effector to target 24:1.
Setting [9] is: Test 3, donor IV, 1 × 10^-7 molar, effector to target 24:1.

For `C=C1/C(=C\C=C2/CCC[C@]3(C)[C@@H]([C@H](C)C[C@H](O)CC(C)(C)O)CC[C@@H]23)C[C@@H](O)C[C@@H]1O` [1α,23S,25-(OH)3 --D3, 1α,23S,25-Trihydroxycholecalciferol], under setting [1], the inhibition at 10 µM is 95% and the “CTL activity (% specific ^51 Cr release)” value is listed as 2 ± 3 % specific ^51 Cr release. Moreover, under setting [2], the inhibition at 1 µM amounted to 72% and the “CTL activity (% specific ^51 Cr release)” value worked out at 12 ± 3 % specific ^51 Cr release. Under setting [3], the inhibition at 1 µM was 62% and the “CTL activity (% specific ^51 Cr release)” value is given as 14 ± 7 % specific ^51 Cr release. Besides, under setting [4], the inhibition at 0.1 µM amounted to 73% and the “CTL activity (% specific ^51 Cr release)” value amounted to 10 ± 2 % specific ^51 Cr release. Further, the “suppression of generation of human cytotoxic T-lymphocytes (in words)” value (Table IV) is reported as “suppressed the generation of human cytotoxic T-lymphocytes”.

As for `C=C1/C(=C\C=C2/CCC[C@]3(C)[C@@H]([C@H](C)/C=C/[C@H](C)[C@](C)(O)CO)CC[C@@H]23)C[C@@H](O)C[C@@H]1O` [1α,25S,26-(OH)3 --D2, 1α,25S,26-Trihydroxyergocalciferol], the inhibition at 1 µM is, setting by setting: under setting [2], 54%; under setting [6], 100%; under setting [8], 82%. In addition, the inhibition at 0.1 µM reads like this: under setting [5], 76%; under setting [7], 87%; under setting [9], 40%. For the same compound, the “CTL activity (% specific ^51 Cr release)” value is listed as 17 ± 4 % specific ^51 Cr release under setting [2]; 9 ± 2 % specific ^51 Cr release under setting [5]; -4 ± 2 % specific ^51 Cr release under setting [6]; 7 ± 2 % specific ^51 Cr release under setting [7]; 10 ± 2 % specific ^51 Cr release under setting [8]; 34 ± 10 % specific ^51 Cr release under setting [9].

Regarding `C=C1/C(=C\C=C2/CCC[C@]3(C)[C@@H]([C@H](C)C=CC[C@](C)(O)CO)CC[C@@H]23)C[C@@H](O)C[C@@H]1O` [1α,25S,26-(OH)3 --Δ^22 -D3, 1α,25S,26-Trihydroxy-Δ^22-cholecalciferol], under setting [1], the inhibition at 10 µM is 63% and the “CTL activity (% specific ^51 Cr release)” value turned out to be 16 ± 4 % specific ^51 Cr release. Further, under setting [2], the inhibition at 1 µM came to 70% and the “CTL activity (% specific ^51 Cr release)” value is on record as 13 ± 8 % specific ^51 Cr release. For the same compound, under setting [3], the inhibition at 1 µM was 49% and the “CTL activity (% specific ^51 Cr release)” value is recorded as 19 ± 4 % specific ^51 Cr release. In addition, under setting [4], the inhibition at 0.1 µM was 97% and the “CTL activity (% specific ^51 Cr release)” value came out at 1 ± 4 % specific ^51 Cr release.
